“Also recorded” adds a separate entry of the source.
How the values were obtained:
[1] = test system: U87 intracranial xenografts; assay: Histological analysis and TUNEL of intracranial tumor sections; format: in vivo, nude mice; conditions: day 7
Procedure: (§1) In a second experiment, mice were randomized into eight groups (untreated control (UTC); intratumoral (IT) Ad.Egr-TNF alone; intraperitoneal (IP) TMZ alone; IR alone; Ad.Egr-TNF and TMZ; Ad.Egr-TNF and IR; TMZ and IR; and Ad.Egr-TNF, TMZ and IR). A single dose of 5×10^5 U87 cells was inoculated into the right caudate nucleus of each mouse on day 0 using a screw guide technique (Lal, S. et al. (2000) J Neurosurg 92:326-333). On day 5, 5×10^8 pu Ad.Egr-TNF in 5 μL volume was injected once via the screw guide directly into the tumor. Beginning two hours after vector injection, 5 Gy IR was delivered to the tumor area and repeated every 2-3 days to a total of 30 Gy. TMZ (5 mg/kg) was given IP 3 h after vector inoculation and like doses were given daily for the next two days for a total dose of 15 mg/kg. Control animals received SFM IT and IP and were also placed in Lucite chambers. Daily assessment of animal appearance was made. […]
Paraffin embedded brains were sectioned (8 μm), stained with hematoxylin and eosin and analyzed in a blinded fashion.
Terminal deoxynucleotidyl transferase-mediated dUTP-biotin nick end-labeling (TUNEL) assay was performed in accordance with the manufacturer's instructions (Chemicon) and analyzed blindly at 400× magnification by use of a computer-aided light microscope with reconstruction software (Neurolucida, Microbrightfield, Vt.). […]

[2] = test system: NF-κB in BxPC-3 pancreatic cancer cells; assay: NF-κB-responsive luciferase reporter assay, BxPC-3; format: cell-based, human
[3] = test system: U87 cells; assay: Flow cytometric analysis of apoptosis (fractional DNA content, annexin V binding); format: cell-based, human; conditions: fractional DNA content, TMZ 100 μM
Procedure: Fractional DNA content: U87 cells (10^5) were plated overnight at 37° C. with 5% CO2. The cells were then treated with TNFα (10 ng/mL) and/or TMZ (100 μM). At 72 h the cells were washed in PBS and fixed in ice-cold 70% (v/v) ethanol. The cells were washed twice and incubated in RNase (1 mg/mL) for 30 m at 37° C., then incubated in propidium iodide (PI) solution (100 ug/mL) for […] at 4° C. Flow cytometric analysis was performed on a FACSort instrument (Becton Dickinson Immunocytometry Systems, San Jose, Calif.), and the data were analyzed using the CellQuest software (Becton Dickinson).
Annexin V binding (van Engeland, M. et al. (1998) Cytometry 31(1):1-9): At 72 h cells were washed in PBS and incubated in the dark for 15 m with binding buffer containing 5 μl of Annexin V-FITC and 5 μl of PI (Annexin V-FITC apoptosis detection kit II). The data was analyzed by Flowjo analysis software (Tree Star Inc., Ashland, Oreg.).
Cells were either un-transfected or co-transfected with pRC-CMV-p65 or pRC-CMV in the presence of a GFP plasmid at a ratio of 4:1. Under these conditions, cells expressing GFP also expressed the co-transfected plasmid (Tang, F. et al. (2002) Mol Cell Biol 22:8571-8579). Cells were then left untreated or treated as described in the figure legends. At 72 h cells were washed in PBS and incubated in the dark for 15 m with binding buffer containing 5 μl of Annexin V-FITC and 5 μl of Propidium iodide (PI). In transfected cells, annexin V binding was assessed in GFP positive cells. Data was analyzed by Flowjo analysis software (Tree Star Inc., Ashland, Oreg., USA) as described in U.S. Provisional Application No. 60/604,251 (Yamini, B. et al. (2004) Cancer Res 64:6381-6384).

[4] = LD50 of IP TMZ; set-up: species or system mice; conditions: mouse, in vivo
[5] = test system: NF-κB in Panel pancreatic cancer cells; assay: NF-κB-responsive luciferase reporter assay, Panel; format: cell-based, human
[6] = test system: U87 intracranial xenografts; assay: Intracranial glioma xenograft survival; format: in vivo, nude mice; conditions: first intracranial experiment; TMZ 20 mg/kg total IP, single IC Ad.Egr-TNF
Procedure: Intracranial Studies: In two separate experiments, 5×10^5 U87 cells were inoculated into the right caudate nucleus on day 0 using a screw guide technique (Lal, S. et al. (2000) J Neurosurg 92:326-333). In the first experiment, mice were randomized into four groups as described above in Example 4. On day 5, a single intracranial (IC) injection of 5×10^8 pu Ad.Egr-TNF in 5 μl volume was made directly into the tumor using the screw guide technique. TMZ (5 mg/kg) was given IP 3 h after IC vector inoculation. Three additional IP TMZ injections were administered on consecutive days for a total dose of 20 mg/kg. Control animals received SFM IT and IP.
as §1, with “Gy.” for “Gy. TMZ (5 mg/kg) was given IP 3 h after vector inoculation and like doses were given daily for the next two days for a total dose of 15 mg/kg. Control animals received SFM IT and IP and were also placed in Lucite chambers. Daily assessment of animal appearance was made.”

[7] = test system: NF-κB in U87 glioma cells; assay: NF-κB-responsive luciferase reporter assay, U87; format: cell-based, human
Procedure: U87 cells (5×10^3) were plated overnight and subsequently co-transfected with Ig-κB-Luc (or pE425 GL3) and the Renilla reniformis expression vector, pRL-TK, to normalize transfection efficiency, at a ratio of 10:1 using SuperFectin transfection kit (Qiagen, Valencia, Calif., USA). Twenty-four hours after transfection, the cells were pretreated with TMZ (100 μM) for 16 h, then treated with TNFα (10 ng/mL). Five hours later NF-κB (or Egr-1) and Renilla luciferase activity were measured with the Dual-Luciferase reporter assay system (Promega Corp., Madison, Wis., USA). Relative luciferase was calculated as the ratio of firefly luminescence/Renilla luminescence for each sample.

[8] = test system: p65; assay: TNFα-induced p65 phosphorylation (Western blot); format: cell-based, human
Procedure: 20 μg of whole U87 cell (or nuclear) lysate was subjected to sodium dodecyl sulfate (SDS)-polyacrylamide gel electrophoresis (PAGE). Following electro-transfer, Immobilon-P membranes (Millipore Corp. Burlington, Mass., USA.) were probed with primary polyclonal antibody against IκBα, phospho-Ser32-IκBα, SAPK/JNK, phospho-Thr183/Tyr185-SAPK/JNK, p65, phospho-Ser536-p65 (Cell Signaling Technology Inc. Beverly, […]., USA) diluted 1:1000 overnight at 4° C. Anti-rabbit IgG HRP-linked secondary antibody (Cell Signaling Technology) was diluted 1:1000 in blocking buffer and applied for 1 h at room temperature. Immunoreactive bands were detected by SuperSignal enhanced chemiluminescence (ECL) (Pierce, Rockford, Ill., USA) and exposed to Kodak X-Omat film.

[9] = test system: NF-κB in glioma cells; assay: IR- and TNFα-induced NF-κB activity and nuclear translocation; format: cell-based; conditions: co-treatment with TNFα and IR

Cn1nnc2c(C(N)=O)ncn2c1=O [TMZ, temozolomide]
TUNEL positive cells [1]: 14±12 TUNEL^+ cells/10^−6 mm^2
TNFα-induced NF-κB transcriptional activity [2]: activated
cell cycle distribution [3]: increase in the percentage of cells in G2/M phase
LD50 [4]: ~500 mg/kg
TNFα-induced NF-κB transcriptional activity [5]: activated
median survival [6]: 28 days
TNFα-induced NF-κB transcriptional activity ([7]; U87, TMZ pre-treatment): dose dependent inhibition; also recorded: completely inhibited
transcriptional activity of NF-κB, TMZ used alone ([7]; glioma cells, no TNFα): slightly increases
TNFα-induced p65 phosphorylation [8]: inhibits
NF-κB transcriptional activity and nuclear translocation increased by TNFα and IR [9]: inhibited

Reference: US20110091375A1, “USE OF THE COMBINATION COMPRISING TEMOZOLOMIDE AND TNF-ALPHA FOR TREATING GLIOBLASTOMA” (THE UNIVERSITY OF CHICAGO, priority 2004, published 2011)
